Tests used:
Format in all cases: cell-based
IL6 [1] = test: R848 stimulated IL6 inhibition assay in PBMC; conditions: PBMC, human PBMCs, R848 stimulation, compound overnight, IL6 by MSD after 24 hrs; for Dmax: Homo sapiens, 24 h, read-out: R848 stim IL6 inhibition Dmax; for IC50: read-out: R848 stim IL6 inhibition IC50
Method: (§1) IL-1β, LPS, or R848 Stimulated IL6 Inhibition and IL-1β Stimulated IL8 Inhibition Assay
(§2) Human PBMC cells were seeded at 2.0×10^6 cells/mL, treated with compound overnight, and dosed with the EC50 concentration of each stimulant (either IL-1B. LPS, or R848) was determined for each donor. After 24 hrs, media was collected and analyzed by MSD for IL6 and/or IL8 levels.

IL6 [2] = test: LPS stimulated IL6 inhibition assay in PBMC; conditions: Homo sapiens, PBMC, 24 h, human PBMCs, LPS stimulation, compound overnight, IL6 by MSD after 24 hrs; for Dmax: read-out: LPS Stim IL6 inhibition Dmax; for IC50: read-out: LPS stim IL6 inhibition IC50
Method: as §1, §2

IRAK-4 = biological target: T1, IRAK-4 (Homo sapiens, UniProt Q9NWZ3); test: IRAK-4 ELISA, PBMC degradation; set-up: endogenous in cells; host or cells: PBMC; conditions: treated overnight
T1 sequence (Q9NWZ3 1-460): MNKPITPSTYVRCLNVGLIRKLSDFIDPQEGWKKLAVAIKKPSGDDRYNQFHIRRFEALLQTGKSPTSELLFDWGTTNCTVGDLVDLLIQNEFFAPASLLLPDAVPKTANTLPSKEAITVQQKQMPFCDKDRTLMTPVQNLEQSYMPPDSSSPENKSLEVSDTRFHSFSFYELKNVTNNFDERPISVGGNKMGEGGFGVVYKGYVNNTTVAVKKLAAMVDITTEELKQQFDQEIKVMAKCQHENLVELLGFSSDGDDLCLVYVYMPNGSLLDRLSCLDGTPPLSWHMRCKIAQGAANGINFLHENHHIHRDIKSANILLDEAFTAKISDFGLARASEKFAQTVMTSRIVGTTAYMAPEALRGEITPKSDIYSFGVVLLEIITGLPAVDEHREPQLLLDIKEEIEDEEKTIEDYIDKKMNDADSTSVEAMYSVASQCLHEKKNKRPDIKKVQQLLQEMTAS
Method in brief: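 Readout: IRAK-4 protein level in cell lysate, sandwich ELISA. Cells: OCI-Ly10 at 1×10^6/ml or PBMC at 2×10^6/ml, compound added same day, overnight incubation.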

Row | IC50 (IL6 [1]) [nM] | IC50 (IL6 [2]) [nM] | DC50 (IRAK-4) [nM] | Dmax (IRAK-4) [%] | PBMC DC90 (IRAK-4) | Structure (SMILES) | Dmax (IL6 [1]) [%] | Dmax (IL6 [2]) [%]
1 | < 10 | < 10 | < 1 | ≥ 90 | A (A represents a DC90 value <10.0 nM) | O=C1CCC(N2Cc3ccc(N4CCC(CN5CCC(N6Cc7cc(NC(=O)c8cnn9cccnc89)c(N8CCC(N9CCC9)CC8)cc7C6=O)CC5)CC4)cc3C2=O)C(=O)N1 (stereo not drawn) [Example 49] | ≥ 90 | ≥ 90
2 | 10 to 50 | 10 to 50 | < 1 | ≥ 90 | A (A represents a DC90 value <10.0 nM) | O=C1CCC(N2Cc3cc(N4CCC(CN5CCC(N6Cc7cc(NC(=O)c8cnn9cccnc89)c(N8CCN(CC(F)F)CC8)cc7C6=O)CC5)CC4)ccc3C2=O)C(=O)N1 (stereo not drawn) [Example 50] | ≥ 90 | < 70
3 | 10 to 50 | 50 to 100 | < 1 | ≥ 90 | A (A represents a DC90 value <10.0 nM) | O=C1CCC(N2Cc3c(ccc(N4CCC(CN5CCC(N6Cc7cc(NC(=O)c8cnn9cccnc89)c(N8CCN(CC(F)F)CC8)cc7C6=O)CC5)CC4)c3F)C2=O)C(=O)N1 (stereo not drawn) [Example 51] | ≥ 90 | < 70
4 | 10 to 50 | 10 to 50 | 1 to 5 | ≥ 90 | A (A represents a DC90 value <10.0 nM) | O=C1CCC(N2C(=O)c3ccc(N4CCC(CN5CCC(N6Cc7cc(NC(=O)c8cnn9cccnc89)c(N8CCN(CC(F)F)CC8)cc7C6=O)CC5)CC4)cc3C2=O)C(=O)N1 (stereo not drawn) [Example 52] | 80 to 90 | 80 to 90
5 | 10 to 50 | < 10 | 1 to 5 | ≥ 90 | A (A represents a DC90 value <10.0 nM) | O=C1CCC(N2Cc3cc(N4CCC(CN5CCC(N6Cc7cc(NC(=O)c8cnn9cccnc89)c(N8CCN(C9CC(F)(F)C9)CC8)cc7C6=O)CC5)CC4)ccc3C2=O)C(=O)N1 (stereo not drawn) [Example 54] | 80 to 90 | < 70
6 | 10 to 50 | < 10 | < 1 | ≥ 90 | A (A represents a DC90 value <10.0 nM) | O=C1CCC(N2Cc3c(ccc(N4CCC(CN5CCC(N6Cc7cc(NC(=O)c8cnn9cccnc89)c(N8CCN(C9CC(F)(F)C9)CC8)cc7C6=O)CC5)CC4)c3F)C2=O)C(=O)N1 (stereo not drawn) [Example 55] | ≥ 90 | < 70
7 | 10 to 50 | < 10 | 1 to 5 | ≥ 90 | A (A represents a DC90 value <10.0 nM) | Cc1cnc2c(C(=O)Nc3cc4c(cc3OC(C)C)C(=O)N(C3CCN(CC5CCN(c6ccc7c(c6)C(=O)N(C6CCC(=O)NC6=O)C7=O)CC5)CC3)C4)cnn2c1 (stereo not drawn) [Example 56] | ≥ 90 | 70 to 80
8 | 50 to 100 | ≥ 100 | ≥ 10 |  | D (D represents a DC90 value ≥50 nM) | CC(C)Oc1cc2c(cc1NC(=O)c1cnn3cccnc13)CN(C1CCN(CC3CCN(c4ccc5c(c4)C(=O)N(C4CCC(=O)NC4=O)C5)CC3)CC1)C2=O (stereo not drawn) [Example 105] | 80 to 90 | 70 to 80
9 | 10 to 50 | ≥ 100 | 1 to 5 | ≥ 90 | A (A represents a DC90 value <10.0 nM) | CC(C)Oc1cc2c(cc1NC(=O)c1cnn3cccnc13)CN(C1CCN(CC3(F)CN(c4ccc5c(c4)C(=O)N(C4CCC(=O)NC4=O)C5)C3)CC1)C2=O (stereo not drawn) [Example 106] | ≥ 90 | 80 to 90
10 | 50 to 100 | 10 to 50 | 1 to 5 | 70 to 80 | A (A represents a DC90 value <10.0 nM) | CC(C)Oc1cc2c(cc1NC(=O)c1cnn3cccnc13)CN(C1CCN(CC3(F)CN(c4ccc5c(c4F)CN(C4CCC(=O)NC4=O)C5=O)C3)CC1)C2=O (stereo not drawn) [Example 107] | ≥ 90 | ≥ 90
11 | 10 to 50 | 10 to 50 | < 1 | ≥ 90 | A (A represents a DC90 value <10.0 nM) | CC(C)Oc1cc2c(cc1NC(=O)c1cnn3cccnc13)CN(C1CCN(CC3(O)CCN(c4ccc5c(c4)C(=O)N(C4CCC(=O)NC4=O)C5=O)CC3)CC1)C2=O (stereo not drawn) [Example 109] | ≥ 90 | 70 to 80
12 | 10 to 50 | 10 to 50 | < 1 | 80 to 90 | A (A represents a DC90 value <10.0 nM) | CC(C)Oc1cc2c(cc1NC(=O)c1cnn3cccnc13)CN(C1CCN(C(C)(C)C3CCN(c4ccc5c(c4)CN(C4CCC(=O)NC4=O)C5=O)CC3)CC1)C2=O (stereo not drawn) [Example 111] | ≥ 90 | ≥ 90
13 | < 10 | 10 to 50 | < 1 | 80 to 90 | A (A represents a DC90 value <10.0 nM) | O=C1CCC(N2Cc3cc(N4CCC(CN5CCC(n6cc7cc(NC(=O)c8cnn9cccnc89)c(OCC(F)F)cc7n6)CC5)CC4)ccc3C2=O)C(=O)N1 (stereo not drawn) [Example 149] | ≥ 90 | 70 to 80

Row | Structure (SMILES) | IC50 (IL6 [1]) [nM] | IC50 (IL6 [2]) [nM] | DC50 (IRAK-4) [nM] | Dmax (IRAK-4) [%] | PBMC DC90 (IRAK-4) | Dmax (IL6 [1]) [%] | Dmax (IL6 [2]) [%]
14 | O=C1CCC(N2C(=O)c3ccc(N4CCC(CN5CCC(N6Cc7cc(NC(=O)c8cnn9cccnc89)c(N8CCN(C9CC(F)(F)C9)CC8)cc7C6=O)CC5)CC4)cc3C2=O)C(=O)N1 (stereo not drawn) [Example 53] | 10 to 50 | 50 to 100 | 1 to 5 | ≥ 90 | B (B represents a DC90 value ≥10.0 nM and <25.0 nM) | 70 to 80 | < 70
15 | CC(C)Oc1cc2c(cc1NC(=O)c1cnn3cccnc13)CN(C1CCN(CC3(F)CN(c4cc(F)c5c(c4)C(=O)N(C4CCC(=O)NC4=O)C5)C3)CC1)C2=O (stereo not drawn) [Example 108] | 10 to 50 | 10 to 50 | 1 to 5 | ≥ 90 | B (B represents a DC90 value ≥10.0 nM and <25.0 nM) | ≥ 90 | 80 to 90
16 | C=C(CN1CCC(N2Cc3cc(NC(=O)c4cnn5cccnc45)c(OC(C)C)cc3C2=O)CC1)C1CCN(c2ccc3c(c2)C(=O)N(C2CCC(=O)NC2=O)C3=O)CC1 (stereo not drawn) [Example 110] | 10 to 50 | 10 to 50 | 1 to 5 | ≥ 90 | B (B represents a DC90 value ≥10.0 nM and <25.0 nM) | ≥ 90 | 80 to 90
17 | O=C1CCC(N2C(=O)c3ccc(N4CC(F)(CN5CCC(N6Cc7cc(NC(=O)c8cnn9cccnc89)c(N8CCC(N9CCC9)CC8)cc7C6=O)CC5)C4)cc3C2=O)C(=O)N1 (stereo not drawn) [Example 116] | < 10 | < 10 | 1 to 5 | ≥ 90 | B (B represents a DC90 value ≥10.0 nM and <25.0 nM) | ≥ 90 | 80 to 90
18 | O=C1CCC(N2Cc3cc(N4CC(F)(CN5CCC(N6Cc7cc(NC(=O)c8cnn9cccnc89)c(N8CCC(N9CCC9)CC8)cc7C6=O)CC5)C4)ccc3C2=O)C(=O)N1 (stereo not drawn) [Example 117] | 10 to 50 | 10 to 50 | 1 to 5 | ≥ 90 | B (B represents a DC90 value ≥10.0 nM and <25.0 nM) | 80 to 90 | 70 to 80
19 | O=C1CCC(N2C(=O)c3ccc(N4CCC(CN5CCC(n6cc7cc(NC(=O)c8cnn9cccnc89)c(N8CCC(N9CCC9)CC8)cc7n6)CC5)CC4)cc3C2=O)C(=O)N1 (stereo not drawn) [Example 150] | 10 to 50 | 50 to 100 | 1 to 5 | 80 to 90 | C (C represents a DC90 value ≥25.0 nM and <50 nM) | ≥ 90 | 80 to 90

Source: patent US20230099344A1, “COMPOUNDS AND METHODS FOR THE TARGETED DEGRADATION OF IRAK-4” (Arvinas Operations, Inc., priority 2021, published 2023)
